The text below walks through data of paper PMC9927415, “Tyrosine Kinase Inhibitors Display Potent Activity against Cryptosporidium parvum” (Microbiology Spectrum, 2022).

Common to all, as to assay: KINOMEscan competitive binding
The target in one assay is T1, RPS6KA6(Kin.Dom.1) (Homo sapiens, UniProt Q9UK32).
T1 construct: RPS6KA6(Kin.Dom.1); purchased DiscoverX (KINOMEscan)
As to conditions: n=1, read-out: Percent inhibition, RPS6KA6(Kin.Dom.1).

The target in another assay is T2, RPS6KA4(Kin.Dom.1) (Homo sapiens, UniProt O75676).
T2 construct: RPS6KA4(Kin.Dom.1); purchased DiscoverX (KINOMEscan)
T2 sequence (O75676 1-371 limits assumed): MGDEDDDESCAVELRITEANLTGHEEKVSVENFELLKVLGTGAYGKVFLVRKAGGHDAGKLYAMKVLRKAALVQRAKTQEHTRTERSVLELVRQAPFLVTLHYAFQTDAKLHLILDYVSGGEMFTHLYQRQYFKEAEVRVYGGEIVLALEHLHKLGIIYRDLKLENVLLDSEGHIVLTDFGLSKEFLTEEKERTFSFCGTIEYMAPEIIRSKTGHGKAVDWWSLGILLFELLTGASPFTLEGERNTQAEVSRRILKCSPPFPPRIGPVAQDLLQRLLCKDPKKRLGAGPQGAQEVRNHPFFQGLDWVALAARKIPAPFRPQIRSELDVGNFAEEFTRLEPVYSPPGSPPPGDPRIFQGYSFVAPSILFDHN
As to conditions: n=1, read-out: Percent inhibition, RPS6KA4(Kin.Dom.1).

In a further assay the target is T3, TGFBR1 (Homo sapiens, UniProt P36897).
T3 construct: purchased DiscoverX (KINOMEscan)
T3 sequence (P36897 34-503): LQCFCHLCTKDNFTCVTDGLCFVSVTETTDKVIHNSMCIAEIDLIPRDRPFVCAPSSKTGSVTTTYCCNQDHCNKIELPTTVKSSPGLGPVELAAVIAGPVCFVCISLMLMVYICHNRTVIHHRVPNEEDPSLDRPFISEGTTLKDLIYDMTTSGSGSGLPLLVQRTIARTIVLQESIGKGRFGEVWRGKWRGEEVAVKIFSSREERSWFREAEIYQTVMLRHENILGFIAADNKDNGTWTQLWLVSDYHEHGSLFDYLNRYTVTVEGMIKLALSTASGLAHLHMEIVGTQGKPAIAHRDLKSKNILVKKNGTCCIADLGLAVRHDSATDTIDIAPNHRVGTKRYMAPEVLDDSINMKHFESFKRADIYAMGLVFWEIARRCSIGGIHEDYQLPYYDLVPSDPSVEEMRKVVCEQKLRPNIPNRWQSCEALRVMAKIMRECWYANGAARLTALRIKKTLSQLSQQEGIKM
The conditions noted are these: n=1, read-out: Percent inhibition, TGFBR1.

In another assay the target is T4, PRKX (Homo sapiens, UniProt P51817).
T4 construct: purchased DiscoverX (KINOMEscan)
T4 sequence (P51817 1-358): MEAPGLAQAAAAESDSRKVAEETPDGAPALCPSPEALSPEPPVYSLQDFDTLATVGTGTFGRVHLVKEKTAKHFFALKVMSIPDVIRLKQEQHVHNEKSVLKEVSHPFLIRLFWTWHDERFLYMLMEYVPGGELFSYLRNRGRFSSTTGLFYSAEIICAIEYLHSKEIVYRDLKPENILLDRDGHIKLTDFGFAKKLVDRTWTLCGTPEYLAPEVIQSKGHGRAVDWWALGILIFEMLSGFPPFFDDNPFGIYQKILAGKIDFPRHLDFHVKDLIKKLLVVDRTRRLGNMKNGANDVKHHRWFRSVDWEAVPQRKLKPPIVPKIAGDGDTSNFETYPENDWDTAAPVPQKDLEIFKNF
The conditions noted are these: n=1, read-out: Percent inhibition, PRKX.

The target of the next assay is T5, ULK3(mouse) (Mus musculus, UniProt Q3U3Q1).
T5 construct: purchased DiscoverX (KINOMEscan)
T5 sequence (Q3U3Q1 1-472): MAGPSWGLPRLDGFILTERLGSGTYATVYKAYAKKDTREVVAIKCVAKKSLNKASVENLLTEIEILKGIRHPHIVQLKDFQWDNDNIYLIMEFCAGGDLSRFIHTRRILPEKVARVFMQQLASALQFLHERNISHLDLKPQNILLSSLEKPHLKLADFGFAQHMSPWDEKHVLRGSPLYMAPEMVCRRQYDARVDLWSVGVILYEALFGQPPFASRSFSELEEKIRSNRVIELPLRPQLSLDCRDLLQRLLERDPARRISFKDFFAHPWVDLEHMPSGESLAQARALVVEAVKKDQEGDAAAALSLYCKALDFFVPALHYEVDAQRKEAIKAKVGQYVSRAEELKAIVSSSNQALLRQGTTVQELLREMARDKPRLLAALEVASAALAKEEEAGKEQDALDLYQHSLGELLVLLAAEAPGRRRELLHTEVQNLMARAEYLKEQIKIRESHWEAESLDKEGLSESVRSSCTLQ
As to conditions: n=1, read-out: Percent inhibition, ULK3(mouse).

The target of a further assay is T6, RPS6KA5(Kin.Dom.1) (Homo sapiens, UniProt O75582).
T6 construct: RPS6KA5(Kin.Dom.1); purchased DiscoverX (KINOMEscan)
T6 sequence (O75582 1-387 limits assumed): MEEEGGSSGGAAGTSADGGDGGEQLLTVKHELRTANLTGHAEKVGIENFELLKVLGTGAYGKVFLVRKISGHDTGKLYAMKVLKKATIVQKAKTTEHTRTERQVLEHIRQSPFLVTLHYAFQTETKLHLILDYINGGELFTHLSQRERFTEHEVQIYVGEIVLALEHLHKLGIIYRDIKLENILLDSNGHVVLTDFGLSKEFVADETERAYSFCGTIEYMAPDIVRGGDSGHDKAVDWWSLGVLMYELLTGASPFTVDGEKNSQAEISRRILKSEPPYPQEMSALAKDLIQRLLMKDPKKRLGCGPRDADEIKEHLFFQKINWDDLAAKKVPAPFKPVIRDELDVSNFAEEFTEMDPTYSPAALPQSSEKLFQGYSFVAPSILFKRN
The conditions noted are these: n=1, read-out: Percent inhibition, RPS6KA5(Kin.Dom.1).

The target of another assay is T7, PAK6 (Homo sapiens, UniProt Q9NQU5).
T7 construct: purchased DiscoverX (KINOMEscan)
T7 sequence (Q9NQU5 whole entry): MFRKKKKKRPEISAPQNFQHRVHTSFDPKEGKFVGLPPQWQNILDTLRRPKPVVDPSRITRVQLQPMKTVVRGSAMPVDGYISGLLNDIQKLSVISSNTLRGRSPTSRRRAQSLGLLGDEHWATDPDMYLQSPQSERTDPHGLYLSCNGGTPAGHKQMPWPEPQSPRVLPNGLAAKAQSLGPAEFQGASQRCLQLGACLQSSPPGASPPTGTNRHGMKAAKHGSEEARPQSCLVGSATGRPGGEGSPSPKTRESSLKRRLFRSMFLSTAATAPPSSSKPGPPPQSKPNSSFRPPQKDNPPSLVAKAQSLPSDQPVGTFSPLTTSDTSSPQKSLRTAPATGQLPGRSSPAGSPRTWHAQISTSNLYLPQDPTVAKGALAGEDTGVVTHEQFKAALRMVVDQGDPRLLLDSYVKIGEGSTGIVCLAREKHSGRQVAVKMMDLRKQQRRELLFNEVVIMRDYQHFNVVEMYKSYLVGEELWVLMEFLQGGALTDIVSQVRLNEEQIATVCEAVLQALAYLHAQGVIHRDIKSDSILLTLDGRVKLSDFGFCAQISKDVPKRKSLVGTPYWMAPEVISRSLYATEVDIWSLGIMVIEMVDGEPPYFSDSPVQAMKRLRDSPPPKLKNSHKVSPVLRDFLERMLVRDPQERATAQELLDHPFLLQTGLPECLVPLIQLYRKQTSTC
The conditions noted are these: n=1, read-out: Percent inhibition, PAK6.

A further assay deals with T8, JAK kinase domains (Homo sapiens, UniProt O60674).
T8 construct: purchased DiscoverX (KINOMEscan)
T8 sequence (O60674 840-1132): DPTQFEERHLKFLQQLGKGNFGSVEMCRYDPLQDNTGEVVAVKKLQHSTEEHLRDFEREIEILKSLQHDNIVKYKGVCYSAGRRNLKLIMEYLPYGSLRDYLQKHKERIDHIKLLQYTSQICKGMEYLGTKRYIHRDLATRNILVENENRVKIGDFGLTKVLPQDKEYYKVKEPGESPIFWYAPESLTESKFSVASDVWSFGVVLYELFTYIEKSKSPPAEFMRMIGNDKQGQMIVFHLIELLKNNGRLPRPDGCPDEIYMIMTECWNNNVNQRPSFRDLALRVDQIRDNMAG
The conditions noted are these: 10 µM, n=1; kinase JAK2(Kin.Dom.2); read-out: Percent inhibition JAK2(Kin.Dom.2). The source says: The kinases were expressed as fusions to T7 bacteriophage. This is a sensitive, competitive binding assay where test compounds were used to displace immobilized ATP-site binding probe ligands from kinases of interest. The amount of kinase that remained bound to the immobilized probe ligands on the solid support was quantified. Percentage inhibition data were was plotted on kinome trees using the web-based tool KinMap (http://www.kinhub.org/kinmap) ([60]).

Another assay addresses T9, STK33 (Homo sapiens, UniProt Q9BYT3).
T9 construct: purchased DiscoverX (KINOMEscan)
The conditions noted are these: n=1, read-out: Percent inhibition, STK33.

Another assay deals with T10, PIM2 (Homo sapiens, UniProt Q9P1W9).
T10 construct: purchased DiscoverX (KINOMEscan)
T10 sequence (Q9P1W9 whole entry): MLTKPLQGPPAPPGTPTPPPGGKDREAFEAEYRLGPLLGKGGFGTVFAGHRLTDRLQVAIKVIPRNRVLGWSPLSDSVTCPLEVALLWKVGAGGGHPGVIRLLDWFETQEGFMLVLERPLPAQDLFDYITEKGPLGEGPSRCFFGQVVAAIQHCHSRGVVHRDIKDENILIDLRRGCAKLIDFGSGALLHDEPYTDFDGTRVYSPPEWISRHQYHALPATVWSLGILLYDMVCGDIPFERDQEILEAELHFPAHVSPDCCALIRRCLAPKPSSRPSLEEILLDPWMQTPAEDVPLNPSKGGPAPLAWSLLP
As to conditions: n=1, read-out: Percent inhibition, PIM2.

Another assay concerns the target T11, TESK1 (Homo sapiens, UniProt Q15569).
T11 construct: purchased DiscoverX (KINOMEscan)
The conditions noted are these: n=1, read-out: Percent inhibition, TESK1.

For another assay, the target named is T12, PHKG1 (Homo sapiens, UniProt Q16816).
T12 construct: purchased DiscoverX (KINOMEscan)
T12 sequence (Q16816 whole entry): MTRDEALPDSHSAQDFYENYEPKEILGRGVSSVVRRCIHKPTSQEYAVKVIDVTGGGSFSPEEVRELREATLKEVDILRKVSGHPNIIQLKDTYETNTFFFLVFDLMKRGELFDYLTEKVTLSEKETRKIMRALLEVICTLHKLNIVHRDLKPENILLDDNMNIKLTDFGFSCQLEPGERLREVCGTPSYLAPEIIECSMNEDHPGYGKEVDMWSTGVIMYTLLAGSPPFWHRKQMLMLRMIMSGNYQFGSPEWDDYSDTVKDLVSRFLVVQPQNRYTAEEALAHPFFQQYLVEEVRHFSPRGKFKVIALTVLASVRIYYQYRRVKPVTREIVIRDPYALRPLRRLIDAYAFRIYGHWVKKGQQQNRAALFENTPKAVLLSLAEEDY
The conditions noted are these: n=1, read-out: Percent inhibition, PHKG1.

T9 sequence (Q9BYT3 whole entry): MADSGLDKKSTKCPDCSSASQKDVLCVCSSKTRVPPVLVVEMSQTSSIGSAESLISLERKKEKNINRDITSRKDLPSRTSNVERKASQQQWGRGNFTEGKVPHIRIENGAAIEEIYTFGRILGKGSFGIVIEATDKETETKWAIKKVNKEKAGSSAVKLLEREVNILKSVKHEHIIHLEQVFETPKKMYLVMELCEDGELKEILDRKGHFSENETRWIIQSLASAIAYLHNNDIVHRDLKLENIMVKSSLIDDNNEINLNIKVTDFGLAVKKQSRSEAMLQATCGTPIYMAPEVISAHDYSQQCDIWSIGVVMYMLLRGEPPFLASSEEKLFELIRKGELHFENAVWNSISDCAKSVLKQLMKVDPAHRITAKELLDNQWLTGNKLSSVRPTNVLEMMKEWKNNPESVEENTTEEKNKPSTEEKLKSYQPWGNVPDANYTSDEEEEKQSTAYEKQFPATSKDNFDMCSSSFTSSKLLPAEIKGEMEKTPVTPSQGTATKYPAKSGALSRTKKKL
T1 sequence (Q9UK32 1-400 limits assumed): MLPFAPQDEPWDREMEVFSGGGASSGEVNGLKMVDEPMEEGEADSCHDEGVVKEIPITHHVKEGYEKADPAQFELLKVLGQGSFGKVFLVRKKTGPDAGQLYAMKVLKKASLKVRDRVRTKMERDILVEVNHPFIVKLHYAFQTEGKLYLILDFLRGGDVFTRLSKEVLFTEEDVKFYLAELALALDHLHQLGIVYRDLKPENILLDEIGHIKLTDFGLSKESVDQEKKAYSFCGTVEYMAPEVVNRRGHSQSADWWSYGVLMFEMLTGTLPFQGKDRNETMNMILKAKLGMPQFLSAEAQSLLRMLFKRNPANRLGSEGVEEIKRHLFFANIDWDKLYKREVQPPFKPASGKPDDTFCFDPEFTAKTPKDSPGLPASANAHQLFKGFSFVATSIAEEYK
T11 sequence (Q15569 whole entry): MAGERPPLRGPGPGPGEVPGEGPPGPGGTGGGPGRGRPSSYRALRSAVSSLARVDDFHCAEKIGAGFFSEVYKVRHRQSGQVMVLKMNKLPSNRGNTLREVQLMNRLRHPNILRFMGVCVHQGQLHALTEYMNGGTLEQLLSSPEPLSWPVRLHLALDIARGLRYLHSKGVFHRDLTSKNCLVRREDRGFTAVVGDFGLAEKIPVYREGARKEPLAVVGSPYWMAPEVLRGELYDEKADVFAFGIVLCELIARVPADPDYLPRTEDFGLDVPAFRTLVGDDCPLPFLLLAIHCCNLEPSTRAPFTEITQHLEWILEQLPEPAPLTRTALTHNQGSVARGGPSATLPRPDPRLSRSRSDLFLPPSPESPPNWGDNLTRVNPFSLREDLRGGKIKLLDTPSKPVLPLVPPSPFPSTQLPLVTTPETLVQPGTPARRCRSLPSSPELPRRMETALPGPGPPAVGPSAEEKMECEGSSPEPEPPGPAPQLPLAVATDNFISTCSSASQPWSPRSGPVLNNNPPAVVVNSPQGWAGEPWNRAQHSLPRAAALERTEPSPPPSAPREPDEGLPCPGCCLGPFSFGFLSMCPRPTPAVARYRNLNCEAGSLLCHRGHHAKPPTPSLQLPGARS

As to `Nc1ncc2c(-c3ccncc3)c[nH]c2n1` [Compound 11], the inhibition (in general, the relative decrease from the control value, in per cent) at 10 µM at RPS6KA6(Kin.Dom.1) was 0%; at RPS6KA4(Kin.Dom.1), 0%; on TGFBR1, 0%; at PRKX, 0%; at ULK3(mouse), 91.7%; at RPS6KA5(Kin.Dom.1) it was 0%. The inhibition at 10 µM at PAK6, on JAK kinase domains, on STK33, on PIM2, at TESK1 and on PHKG1 was 0% each time.
